± gives the standard deviation of the averaged measurements.
Tests used:
Assay in all cases: level (log10 ratio to DMSO vehicle control); higher = higher biomarker level / cell amount than vehicle control
Conditions in all cases: in DMSO
Perfluorooctanamide = compound: NC(=O)C(F)(F)C(F)(F)C(F)(F)C(F)(F)C(F)(F)C(F)(F)C(F)(F)F [Perfluorooctanamide]
Procedure: (§1)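 BioMAP Diversity Plus panel of 12 human primary cell co-culture systems (3C, 4H, LPS, SAg, BT, BF4T, BE3C, CASM3C, HDF3CGF, KF3CT, MyoF, Mphg). Compounds were added 1 h before stimulation and left for 24 h (MyoF 48 h; BT 72 h for soluble read-outs or 6 d for IgG). Biomarkers were read by ELISA, cytotoxicity by SRB, PBMC viability and proliferation by Alamar Blue. Each well value was divided by the mean of 8 DMSO control wells on the same plate and log10 transformed; duplicate blinded samples were tested at 4 concentrations.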

[1] = compound: CNS(=O)(=O)C(F)(F)C(F)(F)C(F)(F)C(F)(F)C(F)(F)C(F)(F)C(F)(F)C(F)(F)F [N-Methylperfluorooctanesulfonamide]
Procedure: as §1

1H,1H-Heptafluorobutanol = compound: OCC(F)(F)C(F)(F)C(F)(F)F [1H,1H-Heptafluorobutanol]
Procedure: as §1

[2] = compound: FC(F)(F)C(F)(F)C(F)(F)C(F)(F)C(F)(F)C(F)(F)C(F)(F)CCI [1-Iodo-1H,1H,2H,2H-perfluorononane]
Procedure: as §1

[3] = compound: O=P(O)(O)CCC(F)(F)C(F)(F)C(F)(F)C(F)(F)C(F)(F)C(F)(F)C(F)(F)C(F)(F)F [((Perfluorooctyl)ethyl)phosphonic acid]
Procedure: as §1

Hexafluoroglutaric acid = compound: O=C(O)C(F)(F)C(F)(F)C(F)(F)C(=O)O [Hexafluoroglutaric acid]
Procedure: as §1

[4] = compound: C=CC(=O)OCCC(F)(F)C(F)(F)C(F)(F)C(F)(F)F [2-(Perfluorobutyl)ethyl acrylate]
Procedure: as §1

Test System | level (log10) (Perfluorooctanamide; 6700 nM) | level (log10) (Perfluorooctanamide; 20000 nM) | level (log10) (Perfluorooctanamide; 60000 nM) | level (log10) ([1]; 6700 nM) | level (log10) ([1]; 20000 nM) | level (log10) ([1]; 60000 nM) | level (log10) (1H,1H-Heptafluorobutanol; 6700 nM) | level (log10) (1H,1H-Heptafluorobutanol; 20000 nM) | level (log10) (1H,1H-Heptafluorobutanol; 60000 nM) | level (log10) ([2]; 6700 nM) | level (log10) ([2]; 20000 nM) | level (log10) ([3]; 6700 nM) | level (log10) ([3]; 20000 nM) | level (log10) ([3]; 60000 nM) | level (log10) (Hexafluoroglutaric acid; 6700 nM) | level (log10) (Hexafluoroglutaric acid; 20000 nM) | level (log10) (Hexafluoroglutaric acid; 60000 nM) | level (log10) ([4]; 6700 nM) | level (log10) ([4]; 20000 nM) | level (log10) ([4]; 60000 nM)
LPS:CD141/Thrombomodulin | -0.016 ± 0.03 | -0.0075 ± 0.0064 | -0.0155 ± 0.037 | 0.005 ± 0.0028 | 0.0475 ± 0.0092 | 0.056 ± 0.0014 | 0.01 ± 0.013 | 0.003 ± 0.016 | -0.008 ± 0.011 | -0.0265 ± 0.0021 | -0.024 ± 0.0057 | -0.02 ± 0.013 | -0.049 ± 0.0085 | 0.0065 ± 0.028 | 0.002 ± 0.0071 | -0.022 ± 0.021 | -0.0355 ± 0.032 | -0.0365 ± 0.019 | -0.03 ± 0.014 | -0.038 ± 0.021
4H:CD62P/P-selectin | -0.0005 ± 0.0078 | -0.0225 ± 0.022 | -0.02 ± 0.024 | 0.0265 ± 0.011 | -0.0345 ± 0.011 | -0.0685 ± 0.0092 | 0.0195 ± 0.064 | -0.007 ± 0.14 | 0.044 ± 0.15 | 0.0005 ± 0.037 | -0.0185 ± 0.06 | -0.0285 ± 0.019 | -0.0235 ± 0.015 | -0.126 ± 0.022 | 0.0065 ± 0.0035 | -0.035 ± 0.0014 | -0.05 ± 0.064 | 0.0065 ± 0.064 | -0.064 ± 0.047 | -0.102 ± 0.036
LPS:CD106/VCAM-1 | -0.0025 ± 0.012 | 0.006 ± 0.0028 | 0.0245 ± 0.00071 | -0.013 ± 0.038 | 0.0295 ± 0.018 | 0.03 ± 0.027 | -0.0165 ± 0.0078 | 0.005 ± 0.0014 | 0.0035 ± 0.0021 | 0.002 ± 0.011 | -0.0155 ± 0.039 | -0.011 ± 0.017 | -0.0125 ± 0.0021 | -0.05 ± 0.0028 | -0.006 ± 0.016 | -0.015 ± 0.024 | -0.005 ± 0.0071 | -0.028 ± 0.024 | -0.0465 ± 0.0035 | -0.141 ± 0.011
SAg:CD40 | -0.0215 ± 0.028 | -0.0195 ± 0.0064 | -0.021 ± 0.033 | -0.016 ± 0.02 | -0.0415 ± 0.012 | -0.0695 ± 0.025 | -0.011 ± 0.018 | 0.0045 ± 0.0092 | 0.0175 ± 0.074 | -0.006 ± 0.021 | -0.0065 ± 0.0092 | -0.0305 ± 0.0078 | -0.0405 ± 0.018 | -0.136 ± 0.025 | -0.012 ± 0.0014 | -0.0225 ± 0.022 | 0.0095 ± 0.0092 | -0.0225 ± 0.0064 | -0.0405 ± 0.0035 | -0.153 ± 0.018
BT:sIL-2 | 0.0115 ± 0.063 | 0.0045 ± 0.084 | -0.176 ± 0.17 | -0.0385 ± 0.073 | -0.0105 ± 0.032 | 0.0385 ± 0.083 | -0.0065 ± 0.077 | -0.0265 ± 0.011 | 0.0365 ± 0.029 | 0.0055 ± 0.0035 | -0.0045 ± 0.019 | 0.0065 ± 0.036 | 0.067 ± 0.069 | -0.107 ± 0.22 | -0.006 ± 0.11 | 0.0205 ± 0.039 | 0.061 ± 0.013 | 0.0045 ± 0.1 | -0.011 ± 0.016 | -0.511 ± 0.23
BF4T:CD106/VCAM-1 | -0.009 ± 0.02 | 0 ± 0.0099 | -0.0005 ± 0.03 | -0.0235 ± 0.023 | -0.0335 ± 0.0092 | 0.0175 ± 0.071 | -0.0155 ± 0.0021 | -0.0105 ± 0.019 | -0.005 ± 0.0071 | -0.027 ± 0.0085 | -0.061 ± 0.014 | -0.009 ± 0.018 | 0.0185 ± 0.019 | 0.0205 ± 0.052 | -0.0055 ± 0.023 | -0.0095 ± 0.0078 | -0.002 ± 0.017 | 0.005 ± 0.0042 | -0.033 ± 0.025 | -0.08 ± 0.0028
BE3C:CXCL10/IP-10 | -0.0025 ± 0.028 | -0.005 ± 0.0071 | -0.0135 ± 0.015 | -0.0415 ± 0.026 | -0.0475 ± 0.0064 | -0.0795 ± 0.049 | 0.0345 ± 0.023 | 0.0195 ± 0.035 | 0.0265 ± 0.032 | 0 ± 0.016 | 0.0025 ± 0.011 | -0.0055 ± 0.0064 | -0.001 ± 0.0099 | -0.0045 ± 0.0078 | -0.001 ± 0.0042 | -0.0085 ± 0.00071 | 0.0015 ± 0.023 | -0.0025 ± 0.00071 | -0.007 ± 0.0057 | -0.012 ± 0.013

— the supplement of paper PMC10331698
